Reference: article PMC6550366, “High-Throughput Recovery and Characterization of Metagenome-Derived Glycoside Hydrolase-Containing Clones as a Resource for Biocatalyst Development” (mSystems, 2019)

Each molecule was assayed on T1, C11-GH1 (assay: fluorogenic hydrolysis, MU release). Details: 20 mM HEPES, 300 mM NaCl, pH 7.0, 37°C; read-out: Mean Km (mM) ± SD.
T1 construct: gene C11_GH1; Full ORF in pET28 (NdeI/XhoI), E. coli BL21(DE3), Ni-NTA; text says C-terminal His tag but reverse primer carries a stop codon; Primer-derived: N-term (M)VAFSDKFL (native GTG start), C-term SRNGKNL, nucleophile region LPLIITENGMADND
Type: biochemical
From the text: fluorogenic hydrolysis, MU release on C11-GH1

SMILES | Km [mM]
Cc1cc(=O)oc2cc(O[C@@H]3O[C@H](CN=[N+]=[N-])[C@H](O)[C@H](O)[C@H]3O)ccc12 [6-N3-Gal MU, 4-methylumbelliferyl 6-azido-6-deoxy-β-D-galactoside] | 0.1 ± 0.02
Cc1cc(=O)oc2cc(O[C@@H]3O[C@H](CN=[N+]=[N-])[C@@H](O)[C@H](O)[C@H]3O)ccc12 [6-N3-Glc MU] | 0.05 ± 0.01
Cc1cc(=O)oc2cc(O[C@@H]3O[C@H](CO)[C@H](O)[C@H](O)[C@H]3O)ccc12 [Gal MU] | 0.05 ± 0.02
Cc1cc(=O)oc2cc(O[C@@H]3O[C@H](CO)[C@@H](O)[C@H](O)[C@H]3O)ccc12 [Glc MU] | 0.2 ± 0.03
